{"source": "patent US20210121414A1", "about": "“METHOD FOR PRODUCING A PHARMACEUTICAL COMPOSITION OF POLYMERIC NANOPARTICLES FOR TREATING NEUROPATHIC PAIN CAUSED BY […] COMPRESSION” (UNIVERSIDAD DE SEVILLA, priority 2015, published 2021)", "key": {"[1]": {"conditions": "cited from earlier work"}, "central nervous system": {"tested_on": "central nervous system", "conditions": "rats; cited from earlier work"}, "[2]": {"tested_on": "Chronic constriction injury (CCI) model of mononeuropathy, mechanical hyperalgesia", "assay": "Paw-pinch test of mechanical hyperalgesia in chronic constriction injury (CCI) rats after single oral administration", "type": "in vivo, Harlan Sprague-Dawley male albino rats", "conditions": "CB13 alone", "procedure": "Harlan Sprague-Dawley male albino rats (230-350 g), provided by the University of Cádiz Animal Experimentation Unit registered under the number ES110120000210, were used. The animals were kept under standard housing conditions (21° C., 12h light-dark cycle, “ad libitum” water and food). All experiments were carried out in accordance with the ethical guidelines for working with experimental animals proposed by the International Association for the Study of Pain […] and by the Federation of Laboratory Animal Science Associations (FELASA).\nChronic constriction injury, (CCI) was used as a model of mononeuropathy since it is a model that correlates well with the symptoms presented in the patients (spontaneous pain, mechanical and thermal allodynia and hyperalgesia.\nNociceptive behavior was evaluated in the ipsi- and contralateral paw to the ligation for sciatic nerve […]. The presence of mechanical hyperalgesia was assessed by using the paw-pinch test. Thus, gradual, increasing pressure (starting with 30 g of pressure) was exerted on the rear part of the paw using a motorized device (Analgesia Meter 57215, UGO BASILE). The cut-off pressure was set at 250 g to prevent possible damage to the paw. Two measurements were taken on each paw, 5 minutes apart, and the average value was used for statistical purposes. Mechanical hyperalgesia appeared as the pressure on the paw decreased."}, "[3]": {"conditions": "cited from earlier work", "remark": "listed apart in the source"}, "[4]": {"tested_on": "established mechanical hyperalgesia", "conditions": "cited from earlier work"}}, "data": [{"smiles": "CCCCCOc1ccc(C(=O)c2cccc3ccccc23)c2ccccc12", "note": "[CB13, 1-naphthalenyl[4-(pentyloxy)-1-naphthalenyl]methanone]", "values": [{"measurement": "aqueous solubility", "setting": "[1]", "value": "0.001-0.002 mg/m L"}, {"measurement": "dose with significant CNS effects relative to the oral dose required to reverse hyperalgesia", "setting": "central nervous system", "value": 20, "unit": "times"}, {"measurement": "anti-hyperalgesic effect 9 hours after administration", "setting": "[2]; 9 hours", "value": "continued to be effective but to a lesser extent"}, {"measurement": "anti-hyperalgesic effect after 24 hours", "setting": "[2]; 24 hours", "value": "its effectiveness had disappeared"}, {"measurement": "penetration into the brain", "setting": "[3]; in vivo", "value": "limited penetration into the brain"}, {"measurement": "absorption after oral administration", "setting": "[3]; oral", "value": "not completely absorbed"}, {"measurement": "antihyperalgesic activity in animal models", "setting": "[4]; animal models", "value": "powerful antihyperalgesic activity"}, {"measurement": "effect on established mechanical hyperalgesia", "setting": "[4]; oral administration and local injection into the hind paw, pig and rat", "value": "reverses the established mechanical hyperalgesia"}]}]}
